Results on 27 molecules are retold here after patent US9833423B2 (KOREA RESEARCH INSTITUTE OF CHEMICAL TECHNOLOGY, priority 2011, dated 2017).

A short description of one data set: in vitro. The settings on record: human.

In brackets after ≈: the same amount, converted by molar mass. Where only a bound is given, the exact number is not on record here.

As usually defined, the melting point is the temperature of the solid-liquid transition. In the case of `CCOC(=O)Cc1cc(OC)c(OC(C)=O)c(C2(OC(C)=O)C(=O)c3ccccc3C2=O)c1` [Example 1, Ethyl 2-(4-acetoxy-3-(2-acetoxy-1,3-dioxo-2,3-dihydro-1H-inden-2-yl)-5-methoxyphenyl)acetate], the melting point lay within 102 to 107 °C. This molecule also gave a CC50 in the data set “in vitro” (CC50) greater than 100 µg/mL.
In the same order, the values of `CC(=O)Oc1c(C2(OC(C)=O)C(=O)c3ccccc3C2=O)ccc(Cl)c1Cl` [Example 4, 6-(2-Acetoxy-1,3-dioxo-2,3-dihydro-1H-inden-2-yl)-2,3-dichlorophenyl acetate] are 129 to 136 °C and 50.4 µg/mL.
Taken in the same sequence, the figures for `CC(=O)Oc1c(Cl)cc(Cl)cc1C1(OC(C)=O)C(=O)c2ccccc2C1=O` [Example 5, 2-(2-Acetoxy-1,3-dioxo-2,3-dihydro-1H-inden-2-yl)-4,6-dichlorophenyl acetate] were 178 to 180 °C and 26 µg/mL.
For `COc1ccc(OC(C)=O)c(C2(OC(C)=O)C(=O)c3ccccc3C2=O)c1` [Example 7, 2-(2-Acetoxy-1,3-dioxo-2,3-dihydro-1H-inden-2-yl)-4-methoxyphenyl acetate], the melting point is 184 to 186 °C. For the same molecule, in the data set “in vitro” (CC50), the CC50 was greater than 100 µg/mL.
Molecule `CC(=O)Oc1cc(-c2ccccc2)ccc1C1(OC(C)=O)C(=O)c2ccccc2C1=O` [Example 8, 4-(2-Acetoxy-1,3-dioxo-2,3-dihydro-1H-inden-2-yl)biphenyl-3-yl acetate] registered a melting point of 165 to 167 °C. Further, the CC50 in the data set “in vitro” (CC50) worked out at 7.91 µg/mL.
In turn, `CC(=O)Oc1ccc([N+](=O)[O-])cc1C1(OC(C)=O)C(=O)c2ccccc2C1=O` [Example 9, 2-(2-Acetoxy-1,3-dioxo-2,3-dihydro-1H-inden-2-yl)-4-nitrophenyl acetate] yielded a melting point of 163 to 167 °C. The CC50 in the data set “in vitro” (CC50) is greater than 100 µg/mL.
The molecule `CC(=O)Oc1ccc(-c2ccccc2)cc1C1(OC(C)=O)C(=O)c2ccccc2C1=O` [Example 10, 3-(2-Acetoxy-1,3-dioxo-2,3-dihydro-1H-inden-2-yl)biphenyl-4-yl acetate] showed a melting point of 196 to 198 °C. The same molecule had a CC50 in the data set “in vitro” (CC50) of 7.85 µg/mL.
In the same order, the values of `CCCc1ccc(OC(C)=O)c(C2(OC(C)=O)C(=O)c3ccccc3C2=O)c1` [Example 11, 2-(2-Acetoxy-1,3-dioxo-2,3-dihydro-1H-inden-2-yl)-4-propylphenyl acetate] are 108 to 111 °C and 8.42 µg/mL.
The molecule `CCc1ccc(OC(C)=O)c(C2(OC(C)=O)C(=O)c3ccccc3C2=O)c1` [Example 12, 2-(2-Acetoxy-1,3-dioxo-2,3-dihydro-1H-inden-2-yl)-4-ethylphenyl acetate] yielded a melting point of 153 to 154 °C. In “in vitro” (CC50), the CC50 was 74.1 µg/mL.
`CCC(C)c1ccc(OC(C)=O)c(C2(OC(C)=O)C(=O)c3ccccc3C2=O)c1` (stereo not drawn) [Example 13, 2-(2-Acetoxy-1,3-dioxo-2,3-dihydro-1H-inden-2-yl)-4-sec-butylphenyl acetate] registered a melting point of 118 to 120 °C. The same molecule had a CC50 in “in vitro” (CC50) of 7.93 µg/mL.
In the same order, the values of `CC(=O)Oc1ccc(C(C)(C)C)cc1C1(OC(C)=O)C(=O)c2ccccc2C1=O` [Example 14, 2-(2-Acetoxy-1,3-dioxo-2,3-dihydro-1H-inden-2-yl)-4-tert-butylphenyl acetate] are 195 to 196 °C and 8.26 µg/mL.
In the same order, the values of `CC(=O)Oc1cc(C)c(C)c(C)c1C1(OC(C)=O)C(=O)c2ccccc2C1=O` [Example 16, 2-(2-Acetoxy-1,3-dioxo-2,3-dihydro-1H-inden-2-yl)-3,4,5-trimethylphenyl acetate] are 238 to 242 °C and 8.87 µg/mL.
Regarding `COc1cc(C(C)C)ccc1C1(O)C(=O)c2cccc([N+](=O)[O-])c2C1=O` (stereo not drawn) [Example 38, 2-Hydroxy-2-(4-isopropyl-2-methoxyphenyl)-4-nitro-2H-inden-1,3-dione], the CC50 in “in vitro” (CC50) is greater than 100 µg/mL.
With `COc1cc(C(C)C)ccc1C1(N=[N+]=[N-])C(=O)c2cccc([N+](=O)[O-])c2C1=O` (stereo not drawn) [Example 40, 2-Azido-2-(4-isopropyl-2-methoxyphenyl)-4-nitro-2H-inden-1,3-dione], the CC50 in “in vitro” (CC50) came to 53.2 µg/mL (≈ 140 µM).
Regarding `COc1cc(C(C)C)ccc1C1(O)C(=O)c2cccc(N)c2C1=O` (stereo not drawn) [Example 41, 4-Amino-2-hydroxy-2-(4-isopropyl-2-methoxyphenyl)-2H-inden-1,3-dione], the melting point was 219 to 220 °C.
In turn, `COc1cc(C(C)C)ccc1C1(O)C(=O)c2c(N)ccc(NC(C)=O)c2C1=O` (stereo not drawn) [Example 44, N-(7-Amino-2-hydroxy-2-(4-isopropyl-2-methoxyphenyl)-1,3-dioxo-2,3-dihydro-1H-inden-4-yl)acetamide] showed a CC50 in the data set “in vitro” (CC50) greater than 117 µg/mL.
On the same count and under the same terms, the same measure for `CC(=O)Oc1ccc(C)nc1C1(OC(C)=O)C(=O)c2ccccc2C1=O` [Example 71, 2-(2-Acetoxy-1,3-dioxo-2,3-dihydro-1H-inden-2-yl)-6-methylpyridin-3-yl acetate]: greater than 100 µg/mL.
The same measure, in the same setting: with `O=C1c2ccccc2C(=O)C1(O)c1ncc(Cl)cc1O` [Example 73, 2-(5-Chloro-3-hydroxypyridin-2-yl)-2-hydroxy-1H-inden-1,3(2H)-dione] the figure was greater than 100 µg/mL; with `O=C1c2ccccc2C(=O)C1(O)c1cc2ncccc2cc1O` [Example 75, 2-Hydroxy-2-(6-hydroxyquinolin-7-yl)-1H-inden-1, 3(2H)-dione], greater than 100 µg/mL.
`CC(=O)Nc1cc(C)c(C)cc1C1(O)C(=O)c2ccccc2C1=O` [Example 86, N-(2-(2-Hydroxy-1,3-dioxo-2,3-dihydro-1H-inden-2-yl)-4,5-dimethylphenyl)acetamide] gave a CC50 in the data set “in vitro” (Picorna-virus CC50) of 4.63 µg/mL (≈ 14.3 µM).
For the molecule `CCc1ccc(C2(O)C(=O)c3ccccc3C2=O)c(NC(C)=O)c1` [Example 88, N-(5-Ethyl-2-(2-hydroxy-1,3-dioxo-2,3-dihydro-1H-inden-2-yl)phenyl)acetamide], the CC50 in “in vitro” (Picorna-virus CC50) was 4.49 µg/mL (≈ 13.9 µM).
The same measure, in the same setting: the same measure for `CCCC(=O)Nc1cc(C)c(C)cc1C1(O)C(=O)c2ccccc2C1=O` [Example 89, N-(2-(2-Hydroxy-1,3-dioxo-2,3-dihydro-1H-inden-2-yl)-4,5-dimethylphenyl)butyramide]: 10.7 µg/mL (≈ 30.4 µM); for `Cc1cc(NC(=O)C(C)C)c(C2(O)C(=O)c3ccccc3C2=O)cc1C` [Example 90, N-(2-(2-Hydroxy-1,3-dioxo-2,3-dihydro-1H-inden-2-yl)-4,5-dimethylphenyl)isobutyramide]: 38.3 µg/mL (≈ 109 µM); for `COc1cccc(C2C(=O)c3ccccc3C2=O)c1` [Example 104, 2-(3-Methoxyphenyl)-2H-inden-1,3-dione]: greater than 100 µg/mL.
The same measure, in the same setting: with `CCOC(=O)Oc1cc(C(C)C)ccc1C1(OC(=O)OCC)C(=O)c2cccnc2C1=O` (stereo not drawn) [Example 105, ethyl (6-(2-((ethoxycarbonyl)oxy)-4-isopropylphenyl)-5,7-dioxo-6,7-dihydro-5H-cyclopenta[b]pyridin-6-yl)carbonate] the figure was greater than 100 µg/mL; with `COc1cc(NC(=O)C(C)C)c(C2(O)C(=O)c3cccc(N)c3C2=O)cc1OC` (stereo not drawn) [Example 107, N-[2-(4-Amino-2-hydroxy-1,3-dioxo-indan-2-yl)-4,5-dimethoxy-phenyl]-isobutyramide], greater than 100 µg/mL.
Regarding `COc1cc(NC(=O)C(C)C)c(C2(O)C(=O)c3cc(OC)c(OC)cc3C2=O)cc1OC` [Example 108, N-[2-(2-Hydroxy-5,6-dimethoxy-1,3-dioxo-indan-2-yl)-4,5-dimethoxy-phenyl]-isobutyramide], the CC50 in “in vitro” (Picorna-virus CC50) was greater than 100 µg/mL.
